In patent publication US20130267474A1, “NOVEL PHYTOCHEMICALS FROM EXTRACTS OF MAPLE SYRUPS AND MAPLE TREES AND USES THEREOF” (UNIVERSITY OF RHODE ISLAND, priority 2010, published 2013):
Values after ≈ are worked out from the molar mass of the structure shown. Like-named read-outs stand apart in the source and are kept apart here.

Assays:
[1] = DPPH radical scavenging (antioxidant) assay; assay type: biochemical; details: Table 10; mean ± standard deviation; 30 min, 515 nm; read-out: IC50 (μM), DPPH radical scavenging
Method: The DPPH radical scavenging activity of ascorbic acid (vitamin C) and the synthetic commercial antioxidant, butylated hydroxytoluene (BHT) are also assayed as positive controls (see Table 10). […] Absorbance is determined after 30 min at 515 nm, and the scavenging capacity (SC) is calculated as SC %=[(A0−A1/A0)]×100, where A0 is the absorbance of the reagent blank and A1 is the absorbance of the test samples. The control contained all reagents except the compounds, and all tests are performed in triplicate.
Absorbance is determined after 30 min at 515 nm, and the scavenging capacity (SC) is calculated as SC %=[(A0−A1/A0)]×100 where A0 is the absorbance of the reagent blank, and A1 is the absorbance with test samples. The control contained all reagents except the compounds and all tests are performed in triplicate.

[2] = test system: HT-29 (human colon adenocarcinoma); assay: MTS cytotoxicity / antiproliferative assay; assay type: cell-based; details: for HT-29 48 h IC50 / HT-29 72 h IC50: ginnalins
Method: (§1) Cell lines included three human colon cancer cells: HT-29 (human colon adenocarcinoma), HCT116 (human colon carcinoma) and Caco-2 (human epithelial colorectal adenocarcinoma). In addition, normal human colon cells are included: CCD-^18Co (human colon fibroblasts). All cell lines are obtained from the American Type Culture Collection (ATCC, Rockville, Md., USA) and maintained at the University of Rhode Island.
(§2) The assay is carried out to measure the IC50 values for samples. […] Test samples and a positive control, etoposide 4 mg/mL (Sigma), are solubilized in DMSO by sonication. […] Control wells are also included on all plates. […] Each point on the curve is […]. Data (see tables 6 to 9) are expressed as mean±SE for three replications on each cell line.

[3] = test system: Caco-2 (human epithelial colorectal adenocarcinoma); assay: MTS cytotoxicity / antiproliferative assay; assay type: cell-based; details: for Caco-2 48 h IC50 / Caco-2 72 h IC50: ginnalins
Method: as §1, §2

[4] = test system: HCT-116 (human colon carcinoma); assay: MTS cytotoxicity / antiproliferative assay; assay type: cell-based; details: for HCT-116 48 h IC50 / HCT-116 72 h IC50: ginnalins
Method: as §1, §2

[5] = test system: CCD-18Co (normal human colon fibroblasts); assay: MTS cytotoxicity / antiproliferative assay; assay type: cell-based; details: 72 h; for CCD-18Co 72 h IC50: ginnalins
Method: as §1, §2

[6] = test system: colon cancer (HCT-116, Caco-2 and HT-29) cell lines; assay: MTS antiproliferative assay, statements pooled over the colon cancer cell lines; details: Homo sapiens, read-out: IC50 range, MTS assay, ginnalins, colon cell lines
[7] = Homo sapiens, HT-29, 72 h, Table 6 maple compounds, 72 h, unit inferred, read-out: HT-29 72 h(IC50)
[8] = Homo sapiens, Caco-2, 72 h, Table 6 maple compounds, 72 h, unit inferred, read-out: Caco-2 72 h(IC50)
[9] = Homo sapiens, HCT-116, 72 h, Table 6 maple compounds, 72 h, unit inferred, read-out: HCT-116 72 h(IC50)
[10] = Homo sapiens, HT-29, 48 h, read-out: Antiproliferative activity HT-29 48 h (IC50), 48 h, pure isolated compounds
[11] = Homo sapiens, HT-29, 48 h, read-out: HT-29 48 h(IC50), Table 6 maple compounds, 48 h, unit inferred
[12] = Homo sapiens, HT-29, 72 h, 72 h, pure isolated compounds, read-out: Antiproliferative activity HT-29 72 h (IC50)
[13] = Homo sapiens, Caco-2, 72 h, 72 h, pure isolated compounds, read-out: Antiproliferative activity Caco-2 72 h (IC50)
[14] = Homo sapiens, HCT-116, 48 h, read-out: Antiproliferative activity HCT-116 48 h (IC50), 48 h, pure isolated compounds
[15] = Homo sapiens, HCT-116, 48 h, read-out: HCT-116 48 h(IC50), Table 6 maple compounds, 48 h, unit inferred
[16] = Homo sapiens, HCT-116, 72 h, 72 h, pure isolated compounds, read-out: Antiproliferative activity HCT-116 72 h (IC50)
[17] = Homo sapiens, HCT-116, 72 h, 72 h, range given for the group, unit inferred, read-out: IC50 against HCT-116 cells at 72 h (moderately active group)
[18] = Homo sapiens, CCD-18Co, Table 6 maple compounds, unit inferred, read-out: CCD-18Co 72 h(IC50)
[19] = Homo sapiens, CCD-18Co, pure isolated compounds, read-out: Antiproliferative activity CCD-8Co 72 h (IC50)
[20] = Homo sapiens, Caco-2, 48 h, read-out: Antiproliferative activity Caco-2 48 h (IC50), 48 h, pure isolated compounds
[21] = Homo sapiens, Caco-2, 48 h, read-out: Caco-2 48 h(IC50), Table 6 maple compounds, 48 h, unit inferred
[22] = Homo sapiens, HCT-116, 72 h, 72 h, range given for the group, read-out: IC50 against HCT-116 cells at 72 h (activity ranking)

Row | Structure (SMILES) | IC50 [1] [µM] | IC50 [2, 7] [µM] | IC50 [3, 8] [µM] | IC50 [4, 9] [µM] | IC50 [2, 10] [µM] | IC50 [2, 11] [µM] | IC50 [2, 12] [µM] | IC50 [3, 13] [µM] | IC50 [4, 14] [µM] | IC50 [4, 15] [µM] | IC50 [4, 16] [µM] | IC50 [5, 19] [µM] | IC50 [3, 20] [µM] | IC50 [3, 21] [µM] | IC50 [4, 22] [µM] | further results
1 | COc1ccc(C2OC(=O)C(O)(Cc3ccc(OC4OC(C)C(O)C(O)C4O)c(OC)c3)C2CO)cc1OC [compound 7, [3-[4-[(6-deoxy-α-L-mannopyranosyl)oxy]-3-methoxyphenyl]methyl]-5-(3,4-dimethoxyphenyl)dihydro-3-hydroxy-4-(hydroxymethyl)-2(3H)-furanone] | 740.2 ± 3.4 | 98.2 | 96.8 | 103 |  |  |  |  |  |  |  |  |  |  |  | 
2 | O=C(OC[C@H]1OC[C@H](OC(=O)c2cc(O)c(O)c(O)c2)[C@@H](O)[C@@H]1O)c1cc(O)c(O)c(O)c1 [Ginnalin A] |  |  |  |  |  |  |  |  |  |  |  |  |  |  |  | HT-29 48 h IC50 ([2]; 48 h): 31.0 ± 2.6 µg/mL; HT-29 72 h IC50 ([2]; 72 h): 24.1 ± 1.3 µg/mL; CCD-18Co 72 h IC50 [5]: 46.6 ± 3.6 µg/mL; Caco-2 48 h IC50 ([3]; 48 h): 28.8 ± 1.8 µg/mL; Caco-2 72 h IC50 ([3]; 72 h): 21.7 ± 1.0 µg/mL; HCT-116 48 h IC50 ([4]; 48 h): 21.5 ± 1.6 µg/mL; HCT-116 72 h IC50 ([4]; 72 h): 16.3 ± 2.1 µg/mL
3 | O=C(OC[C@H]1OC[C@H](O)[C@@H](O)[C@@H]1O)c1cc(O)c(O)c(O)c1 [compound 71, ginnalin-B] |  |  |  |  |  |  |  |  |  |  |  |  |  |  |  | HT-29 48 h IC50 ([2]; 48 h): 36.2 ± 1.5 µg/mL; HT-29 72 h IC50 ([2]; 72 h): 27.3 ± 0.6 µg/mL; IC50 ([2]; Table 6 maple compounds, 72 h, unit inferred, read-out: HT-29 72 h(IC50)): 86.5 µM; IC50 ([2]; read-out: HT-29 48 h(IC50), Table 6 maple compounds, 48 h, unit inferred): 98.9 µM; CCD-18Co 72 h IC50 [5]: 47.1 ± 5.3 µg/mL; IC50 ([5]; Table 6 maple compounds, unit inferred, read-out: CCD-18Co 72 h(IC50)): 107 µM; Caco-2 48 h IC50 ([3]; 48 h): 31.1 ± 1.9 µg/mL; Caco-2 72 h IC50 ([3]; 72 h): 22.6 ± 1.9 µg/mL; IC50 ([3]; Table 6 maple compounds, 72 h, unit inferred, read-out: Caco-2 72 h(IC50)): 71.6 µM; IC50 ([3]; read-out: Caco-2 48 h(IC50), Table 6 maple compounds, 48 h, unit inferred): 98.7 µM; HCT-116 48 h IC50 ([4]; 48 h): 25.1 ± 1.8 µg/mL; HCT-116 72 h IC50 ([4]; 72 h): 20.0 ± 2.0 µg/mL; IC50 ([4]; Table 6 maple compounds, 72 h, unit inferred, read-out: HCT-116 72 h(IC50)): 50.9 µM; IC50 ([4]; read-out: HCT-116 48 h(IC50), Table 6 maple compounds, 48 h, unit inferred): 66.8 µM
4 | COc1cc2ccc(=O)oc2c(O)c1O [compound 9, fraxetin] | 479 ± 42.1 | 93.4 | 101 | 84.5 | 101 ± 1.2 | 101 | 93.4 ± 2.6 | 101 ± 1.3 | 112 ± 1.8 | 112 | 84.5 ± 1.6 |  |  |  |  | IC50 [4, 17]: 75 to 85 µM
5 | COc1cc2ccc(=O)oc2cc1O [compound 8, scopoletin] | 655 ± 14.4 | 70.2 | 82 | 60.6 | 78.7 ± 1.2 | 78.7 | 70 ± 1.3 | 82 ± 2 | 68.1 ± 1 | 68.1 | 60.6 ± 2 | 103 ± 5.9 | 89.3 ± 0.9 | 89.3 | 42 to 67 | IC50 [5, 18]: 103 µM
6 | O=Cc1ccc(O)c(O)c1 [compound 14, catechaldehyde] |  | 63.9 | 58.9 | 52.9 | 71.6 ± 1.5 | 71.6 | 63.9 ± 1.6 | 58.9 ± 1.9 | 63.3 ± 1.3 | 63.3 | 52.9 ± 1.4 | 126 ± 4.6 | 73.2 ± 1.3 | 73.2 | 42 to 67 | IC50 [5, 18]: 126 µM
7 | O=C(OC[C@H]1OC[C@H](OC(=O)c2cc(O)c(O)c(O)c2)[C@@H](O)[C@@H]1O)c1cc(O)c(O)c(O)c1 [compound 70, 2,6-di-O-galloyl-1,5-anhydro-D-glucitol] |  | 51.6 | 46.5 | 43.4 |  | 77 |  |  |  | 54.6 |  |  |  | 61.6 |  | IC50 [6]: 16 to 24 µg/mL (≈ 34.2 to 51.2 µM); IC50 [5, 18]: 90.6 µM
8 | OCCc1ccc(O)cc1 [compound 50, tyrosol] |  |  |  |  | 128 ± 2.3 |  | 114 ± 1.8 | 100 ± 2.6 | 115 ± 1.5 |  | 94.3 ± 1.8 | 145 ± 4.1 | 112 ± 1.9 |  | 94 to 110 | 
9 | COc1cc(CC(CO)C(CO)Cc2ccc(O)c(OC)c2)ccc1O (stereo not drawn) [compound 2, secoisolariciresinol] | 1540.9 ± 0.5 |  |  |  | 88.7 ± 2.2 |  | 68.2 ± 1.4 | 70.9 ± 2.3 | 78 ± 2.3 |  | 59.1 ± 1.5 | 99.6 ± 4.9 | 85 ± 3.8 |  | 42 to 67 | 
10 | COc1cc(C(CO)C(c2ccc(O)c(OC)c2)c2ccc(O)c(OC)c2)ccc1O (stereo not drawn) [compound 54, Quebecol] |  |  |  |  | 103 ± 1.7 |  | 86.1 ± 0.8 | 78.5 ± 1.4 | 95.3 ± 0.6 |  | 76.2 ± 1.2 | 120 ± 1.5 | 98.2 ± 1.5 |  |  | IC50 [4, 17]: 75 to 85 µM
11 | COc1cc(C(=O)C(O)CO)ccc1O (stereo not drawn) [compound 22, C-veratroylglycol] | 138 ± 28.2 | 88.6 | 90.8 | 66.7 | 96 ± 1.5 | 96 | 88.6 ± 1.3 | 90.8 ± 1 | 82.9 ± 2.1 | 82.9 | 66.7 ± 1.5 |  | 101 ± 1.6 | 101 | 42 to 67 | 
12 | COc1cc(/C=C/c2ccc(O)c(OC)c2)ccc1O [compound 10, (E)-3,3′-dimethoxy-4,4′-dihydroxystilbene] | 578.5 ± 1.3 |  | 93.1 |  |  |  |  |  |  |  |  |  |  |  |  | 
13 | COc1cc(C2Oc3c(OC)cc(CCCO)cc3C2CO)cc(OC)c1O (stereo not drawn) [compound 4] |  | 68.2 | 70.9 | 59.1 |  | 88.7 |  |  |  | 78 |  |  |  | 85 |  | IC50 [5, 18]: 99.6 µM
14 | Oc1ccccc1O [compound 23, catechol] |  |  |  |  | 99.4 ± 2.1 |  | 70.3 ± 2 | 64.1 ± 2.5 | 86 ± 2.4 |  | 63 ± 1.3 | 115 ± 2.7 | 71.5 ± 2.3 |  | 42 to 67 | 
